Patent publication US20260216170A1, “TETRAHYDROISOQUINOLINE HETEROBIFUNCTIONAL BCL-XL DEGRADERS” (Treeline Biosciences, Inc., priority 2023, published 2026)

Biological target: T1, Human BCL-XL protein (N-terminal HiBiT tagged BCL-XL expressed in HT1080 cells) (Homo sapiens, UniProt Q07817)
T1 construct: expressed in transfected cells; host or cells: HT-1080 (ATCC CCL-121), stably transduced with lentivirus pLV-UBC-N-HiBiT-BCL-XL-PGK-puro and selected with puromycin
Assay: HiBiT Based Degradation Assay
Format: cell-based
Conditions: 24 hours incubation; for DC50: BCL-XL degradation, HT1080 cells expressing N-HiBiT-BCL-XL, normalized with DMSO control, geometric mean for multiple data points, read-out: EC50 (24 h); for Ymin (24 h): bottom of BCL-XL degradation curve (remaining HiBiT-BCL-XL signal vs DMSO control), HT1080 cells
Outline: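 BCL-XL degradation was read as Nano-Glo HiBiT lytic luminescence relative to DMSO after a 24 h compound treatment of HT1080 cells carrying stably integrated N-HiBiT-BCL-XL. EC50 values come from four-parameter logistic curves, with the hook-curve minimum fixed as bottom, and are geometric means where tested repeatedly.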

T1 sequence (Q07817 whole entry): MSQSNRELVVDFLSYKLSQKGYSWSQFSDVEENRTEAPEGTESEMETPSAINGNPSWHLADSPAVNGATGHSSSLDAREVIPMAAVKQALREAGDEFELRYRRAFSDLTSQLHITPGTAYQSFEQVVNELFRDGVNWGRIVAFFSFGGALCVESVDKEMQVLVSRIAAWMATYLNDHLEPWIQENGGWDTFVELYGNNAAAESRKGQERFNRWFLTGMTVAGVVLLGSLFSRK

DC50 | Ymin (24 h) | SMILES
< 10 nM | B (30% ≤ Ymin < 50%) | Cn1nc(C2CCC(=O)NC2=O)c2ccc(NC(=O)CN3CCC4(CC3)CC(Oc3cccc(-c5ccc(N6CCc7cccc(C(=O)Nc8nc9ccccc9s8)c7C6)nc5C(=O)O)c3C(F)(F)F)C4)c(F)c21 (stereo not drawn) [Compound 188, 6-(8-(benzo[d]thiazol-2-ylcarbamoyl)-3,4-dihydroisoquinolin-2(1H)-yl)-3-(3-((7-(2-((3-(2,6-dioxopiperidin-3-yl)-7-fluoro-1-methyl-1H-indazol-6-yl)amino)-2-oxoethyl)-7-azaspiro[3.5]nonan-2-yl)oxy)-2-(trifluoromethyl)phenyl)picolinic acid]
< 10 nM | B (30% ≤ Ymin < 50%) | Cn1nc(C2CCC(=O)NC2=O)c2ccc(NC(=O)CN3CCC4(CC3)CC(Oc3ccc(-c5ccc(N6CCc7cccc(C(=O)Nc8nc9ccccc9s8)c7C6)nc5C(=O)O)c(C(F)(F)F)c3)C4)c(F)c21 (stereo not drawn) [Compound 189]
< 10 nM | B (30% ≤ Ymin < 50%) | Cc1c(OC2CC3(CCN(CC(=O)Nc4ccc5c(C6CCC(=O)NC6=O)nn(C)c5c4F)CC3)C2)cccc1-c1ccc(N2CCc3cccc(C(=O)Nc4nc5ccccc5s4)c3C2)nc1C(=O)O (stereo not drawn) [Compound 190, 6-(8-(benzo[d]thiazol-2-ylcarbamoyl)-3,4-dihydroisoquinolin-2(1H)-yl)-3-(3-((7-(2-((3-(2,6-dioxopiperidin-3-yl)-7-fluoro-1-methyl-1H-indazol-6-yl)amino)-2-oxoethyl)-7-azaspiro[3.5]nonan-2-yl)oxy)-2-methylphenyl)picolinic acid]
< 10 nM | B (30% ≤ Ymin < 50%) | Cc1cc(OC2CC3(CCN(CC(=O)Nc4ccc5c(C6CCC(=O)NC6=O)nn(C)c5c4F)CC3)C2)ccc1-c1ccc(N2CCc3cccc(C(=O)Nc4nc5ccccc5s4)c3C2)nc1C(=O)O (stereo not drawn) [Compound 191]
< 10 nM | B (30% ≤ Ymin < 50%) | Cn1nc(C2CCC(=O)NC2=O)c2ccc(NC(=O)CN3CCC4(CC3)CC(Oc3cccc(-c5ccc(N6CCc7cccc(C(=O)Nc8nc9ccccc9s8)c7C6)nc5C(=O)O)c3C(F)(F)F)C4)nc21 (stereo not drawn) [Compound 192, 6-(8-(benzo[d]thiazol-2-ylcarbamoyl)-3,4-dihydroisoquinolin-2(1H)-yl)-3-(3-((7-(2-((3-(2,6-dioxopiperidin-3-yl)-1-methyl-1H-pyrazolo[3,4-b]pyridin-6-yl)amino)-2-oxoethyl)-7-azaspiro[3.5]nonan-2-yl)oxy)-2-(trifluoromethyl)phenyl)picolinic acid]
10 to 100 nM | B (30% ≤ Ymin < 50%) | Cn1nc(C2CCC(=O)NC2=O)c2ccc(NC(=O)CN3CCC4(CC3)CC(Oc3ccc(-c5ccc(N6CCc7cccc(C(=O)Nc8nc9ccccc9s8)c7C6)nc5C(=O)O)c(C(F)(F)F)c3)C4)nc21 (stereo not drawn) [Compound 193]
< 10 nM | B (30% ≤ Ymin < 50%) | Cc1c(OC2CC3(CCN(CC(=O)Nc4ccc5c(C6CCC(=O)NC6=O)nn(C)c5n4)CC3)C2)cccc1-c1ccc(N2CCc3cccc(C(=O)Nc4nc5ccccc5s4)c3C2)nc1C(=O)O (stereo not drawn) [Compound 194, 6-(8-(benzo[d]thiazol-2-ylcarbamoyl)-3,4-dihydroisoquinolin-2(1H)-yl)-3-(3-((7-(2-((3-(2,6-dioxopiperidin-3-yl)-1-methyl-1H-pyrazolo[3,4-b]pyridin-6-yl)amino)-2-oxoethyl)-7-azaspiro[3.5]nonan-2-yl)oxy)-2-methylphenyl)picolinic acid]
< 10 nM | B (30% ≤ Ymin < 50%) | Cc1cc(OC2CC3(CCN(CC(=O)Nc4ccc5c(C6CCC(=O)NC6=O)nn(C)c5n4)CC3)C2)ccc1-c1ccc(N2CCc3cccc(C(=O)Nc4nc5ccccc5s4)c3C2)nc1C(=O)O (stereo not drawn) [Compound 195]
< 10 nM | B (30% ≤ Ymin < 50%) | Cn1nc(C2CCC(=O)NC2=O)c2ccc(NC(=O)CN3CCC4(CCC(Oc5cccc(-c6ccc(N7CCc8cccc(C(=O)Nc9nc%10ccccc%10s9)c8C7)nc6C(=O)O)c5C(F)(F)F)CC4)CC3)cc21 (stereo not drawn) [Compound 196]
< 10 nM | B (30% ≤ Ymin < 50%) | Cn1nc(C2CCC(=O)NC2=O)c2ccc(NC(=O)CN3CCC4(CCC(Oc5ccc(-c6ccc(N7CCc8cccc(C(=O)Nc9nc%10ccccc%10s9)c8C7)nc6C(=O)O)c(C(F)(F)F)c5)CC4)CC3)cc21 (stereo not drawn) [Compound 197]
10 to 100 nM | B (30% ≤ Ymin < 50%) | Cn1nc(C2CCC(=O)NC2=O)c2ccc(NC(=O)CN3CCC(CCCOc4cccc(-c5ccc(N6CCc7cccc(C(=O)Nc8nc9ccccc9s8)c7C6)nc5C(=O)O)c4F)CC3)cc21 (stereo not drawn) [Compound 198]
< 10 nM | A (Ymin < 30%) | Cn1nc(C2CCC(=O)NC2=O)c2ccc(NC(=O)CN3CCC(CCCOc4ccc(-c5ccc(N6CCc7cccc(C(=O)Nc8nc9ccccc9s8)c7C6)nc5C(=O)O)c(F)c4)CC3)cc21 (stereo not drawn) [Compound 199]
10 to 100 nM | B (30% ≤ Ymin < 50%) | COc1c(NC(=O)CN2CCC(CCCOc3cccc(-c4ccc(N5CCc6cccc(C(=O)Nc7nc8ccccc8s7)c6C5)nc4C(=O)O)c3F)CC2)ccc2c(C3CCC(=O)NC3=O)nn(C)c12 (stereo not drawn) [Compound 200]
10 to 100 nM | A (Ymin < 30%) | COc1c(NC(=O)CN2CCC(CCCOc3ccc(-c4ccc(N5CCc6cccc(C(=O)Nc7nc8ccccc8s7)c6C5)nc4C(=O)O)c(F)c3)CC2)ccc2c(C3CCC(=O)NC3=O)nn(C)c12 (stereo not drawn) [Compound 201]
< 10 nM | B (30% ≤ Ymin < 50%) | Cn1nc(C2CCC(=O)NC2=O)c2ccc(NC(=O)CN3CCC4(CC3)CC(Oc3cccc(-c5ccc(N6CCc7ccnc(C(=O)Nc8nc9ccccc9s8)c7C6)nc5C(=O)O)c3C(F)(F)F)C4)nc21 (stereo not drawn) [Compound 202, 6-(8-(benzo[d]thiazol-2-ylcarbamoyl)-3,4-dihydro-2,7-naphthyridin-2(1H)-yl)-3-(3-((7-(2-((3-(2,6-dioxopiperidin-3-yl)-1-methyl-1H-pyrazolo[3,4-b]pyridin-6-yl)amino)-2-oxoethyl)-7-azaspiro[3.5]nonan-2-yl)oxy)-2-(trifluoromethyl)phenyl)picolinic acid]
10 to 100 nM | B (30% ≤ Ymin < 50%) | Cn1nc(C2CCC(=O)NC2=O)c2ccc(NC(=O)CN3CCC4(CC3)CC(Oc3ccc(-c5ccc(N6CCc7ccnc(C(=O)Nc8nc9ccccc9s8)c7C6)nc5C(=O)O)c(C(F)(F)F)c3)C4)c(F)c21 (stereo not drawn) [Compound 203]
< 10 nM | B (30% ≤ Ymin < 50%) | Cc1c(OC2CC3(CCN(CC(=O)Nc4ccc5c(C6CCC(=O)NC6=O)nn(C)c5c4F)CC3)C2)cccc1-c1ccc(N2CCc3ccnc(C(=O)Nc4nc5ccccc5s4)c3C2)nc1C(=O)O (stereo not drawn) [Compound 204, 6-(8-(benzo[d]thiazol-2-ylcarbamoyl)-3,4-dihydro-2,7-naphthyridin-2(1H)-yl)-3-(3-((7-(2-((3-(2,6-dioxopiperidin-3-yl)-7-fluoro-1-methyl-1H-indazol-6-yl)amino)-2-oxoethyl)-7-azaspiro[3.5]nonan-2-yl)oxy)-2-methylphenyl)picolinic acid]
< 10 nM | A (Ymin < 30%) | Cc1cc(OC2CC3(CCN(CC(=O)Nc4ccc5c(C6CCC(=O)NC6=O)nn(C)c5c4F)CC3)C2)ccc1-c1ccc(N2CCc3ccnc(C(=O)Nc4nc5ccccc5s4)c3C2)nc1C(=O)O (stereo not drawn) [Compound 205]
10 to 100 nM | B (30% ≤ Ymin < 50%) | Cn1nc(C2CCC(=O)NC2=O)c2ccc(NC(=O)CN3CCC4(CC3)CC(Oc3ccc(-c5ccc(N6CCc7ccnc(C(=O)Nc8nc9ccccc9s8)c7C6)nc5C(=O)O)c(C(F)(F)F)c3)C4)nc21 (stereo not drawn) [Compound 206]
< 10 nM | B (30% ≤ Ymin < 50%) | Cc1c(OC2CC3(CCN(CC(=O)Nc4ccc5c(C6CCC(=O)NC6=O)nn(C)c5n4)CC3)C2)cccc1-c1ccc(N2CCc3ccnc(C(=O)Nc4nc5ccccc5s4)c3C2)nc1C(=O)O (stereo not drawn) [Compound 207, 6-[8-(1,3-benzothiazol-2-ylcarbamoyl)-3,4-dihydro-1H-2,7-naphthyridin-2-yl]-3-[3-[[7-[2-[[3-(2,6-dioxo-3-piperidyl)-1-methyl-pyrazolo[3,4-b]pyridin-6-yl]amino]-2-oxo-ethyl]-7-azaspiro[3.5]nonan-2-yl]oxy]-2-methyl-phenyl]pyridine-2-carboxylic acid]
10 to 100 nM | B (30% ≤ Ymin < 50%) | Cc1c(OCCC[C@@H]2CCN(CC(=O)Nc3ccc4c(C5CCC(=O)NC5=O)nn(C)c4c3)[C@@H](C)C2)cccc1-c1ccc(N2CCc3cccc(C(=O)Nc4nc5ccccc5s4)c3C2)nc1C(=O)O (stereo partly drawn) [Compound 208a]
10 to 100 nM | B (30% ≤ Ymin < 50%) | COc1c(NC(=O)CN2CC[C@H](CCCOc3cccc(-c4ccc(N5CCc6cccc(C(=O)Nc7nc8ccccc8s7)c6C5)nc4C(=O)O)c3C)C[C@@H]2C)ccc2c(C3CCC(=O)NC3=O)nn(C)c12 (stereo partly drawn) [Compound 208b]
10 to 100 nM | B (30% ≤ Ymin < 50%) | COc1c(NC(=O)CN2CC[C@H](CCCOc3cccc(-c4ccc(N5CCc6cccc(C(=O)Nc7nc8ccccc8s7)c6C5)nc4C(=O)O)c3C)C[C@H]2C)ccc2c(C3CCC(=O)NC3=O)nn(C)c12 (stereo partly drawn) [Compound 208c]
10 to 100 nM | B (30% ≤ Ymin < 50%) | COc1c(NC(=O)CN2CC[C@@H](CCCOc3cccc(-c4ccc(N5CCc6cccc(C(=O)Nc7nc8ccccc8s7)c6C5)nc4C(=O)O)c3C)C[C@H]2C)ccc2c(C3CCC(=O)NC3=O)nn(C)c12 (stereo partly drawn) [Compound 208d]
